Measured values published in US8906904B2, “Alkoxy pyrazoles as soluble guanylate cyclase activators” (Boehringer Ingelheim International GmbH, priority 2012, dated 2014).

Assay: human liver microsome (HLM) metabolic stability assay
Assay type: in vitro ADME
Conditions: human liver microsomes; % hepatic blood flow calculated from t1/2
Method in brief: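 Compounds at 1 uM incubated with human liver microsomes plus NADPH at 37° C., sampled at 0, 5, 15, 30 and 60 min into cold acetonitrile and quantified by LC/MS/MS. t½ from the slope of ln % remaining vs time; CLint, CLh and % Qh derived from it (n=1).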

CCOc1c(C(=O)O)cnn1-c1cccc(-c2cccc(C)c2OCc2ccc3c(c2C)CCN(C[C@H]2CCCO2)CC3)n1 [Compound 233]
HLM (% Qh): 26 % Qh

COc1c(C(=O)O)cnn1-c1cccc(-c2cccc(C)c2OCc2ccc3c(c2F)CCN(C[C@H]2COCCO2)C3)n1 [Compound 234]
HLM (% Qh): <24 % Qh

CCOc1c(C(=O)O)cnn1-c1cccc(-c2cccc(C)c2OCc2ccc3c(c2C)CCN(C[C@@H]2CCCO2)CC3)n1 [Compound 235]
HLM (% Qh): 29 % Qh

CCOc1c(C(=O)O)cnn1-c1cccc(-c2cccc(C)c2OCc2ccc3c(c2C)CCN(C[C@@H]2CCCCO2)C3)n1 [Compound 236]
HLM (% Qh): <24 % Qh

COc1c(C(=O)O)cnn1-c1cccc(-c2cccc(C)c2OCc2cc(C)c3c(c2)CCN(C2CCCOC2)C3)n1 (stereo not drawn) [Compound 237]
HLM (% Qh): <24 % Qh

COc1c(C(=O)O)cnn1-c1cccc(-c2cccc(C)c2OCc2ccc3c(c2C)CCN(C2CCCOC2)C3)n1 (stereo not drawn) [Compound 238]
HLM (% Qh): <24 % Qh

COc1c(C(=O)O)cnn1-c1cccc(-c2cccc(C)c2OCc2cc(C)c3c(c2)CCN(CC2(C)COC2)C3)n1 [Compound 239]
HLM (% Qh): 25 % Qh

COc1c(C(=O)O)cnn1-c1cccc(-c2cccc(C)c2OCc2cc(C)c3c(c2)CCN(CC2COCCO2)C3)n1 (stereo not drawn) [Compound 240]
HLM (% Qh): <24 % Qh

CCOc1c(C(=O)O)cnn1-c1cccc(-c2cccc(C)c2OCc2cc(C)c3c(c2)CCN(C2CCOC2)C3)n1 (stereo not drawn) [Compound 241]
HLM (% Qh): <24 % Qh

COc1c(C(=O)O)cnn1-c1cccc(-c2cccc(C)c2OCc2cc(C)c3c(c2)CCN(C2CCOC2)C3)n1 (stereo not drawn) [Compound 242]
HLM (% Qh): <24 % Qh

CCOc1c(C(=O)O)cnn1-c1cccc(-c2cccc(C)c2OCc2cc(C)c3c(c2)CCN(CC2COCCO2)C3)n1 (stereo not drawn) [Compound 243]
HLM (% Qh): <24 % Qh

COCC(C)N1CCc2cc(COc3c(C)cccc3-c3cccc(-n4ncc(C(=O)O)c4OC)n3)cc(C)c2C1 (stereo not drawn) [Compound 244]
HLM (% Qh): <24 % Qh

CCOc1c(C(=O)O)cnn1-c1cccc(-c2cccc(C)c2OCc2ccc3c(c2)CCCN(C2CCCOC2)C3)n1 (stereo not drawn) [Compound 245]
HLM (% Qh): <24 % Qh

COc1c(C(=O)O)cnn1-c1cccc(-c2cccc(C)c2OCc2ccc3c(c2)CN(CC2COCCO2)C3)n1 (stereo not drawn) [Compound 247]
HLM (% Qh): <24 % Qh

CCc1cc(COc2c(C)cccc2-c2cccc(-n3ncc(C(=O)O)c3OC)n2)cc2c1CN(C1CCOCC1)CC2 [Compound 248]
HLM (% Qh): <24 % Qh

CCc1cc(COc2c(C)cccc2-c2cccc(-n3ncc(C(=O)O)c3OC)n2)cc2c1CN(C1COC1)CC2 [Compound 249]
HLM (% Qh): <24 % Qh

COc1c(C(=O)O)cnn1-c1cccc(-c2cccc(C)c2OCc2cc(C#N)c3c(c2)CCN(C2CCOCC2)C3)n1 [Compound 250]
HLM (% Qh): <24 % Qh

COc1c(C(=O)O)cnn1-c1cccc(-c2cccc(C)c2OCc2ccc3c(c2F)CCN([C@H]2CCOC2)C3)n1 [Compound 251]
HLM (% Qh): <24 % Qh

COc1c(C(=O)O)cnn1-c1cccc(-c2cccc(C)c2OCc2ccc3c(c2F)CCN([C@@H]2CCOC2)C3)n1 [Compound 252]
HLM (% Qh): <24 % Qh

COc1c(C(=O)O)cnn1-c1cccc(-c2cccc(C)c2OCc2cc(F)c3c(c2)CCN([C@@H]2CCOC2)C3)n1 [Compound 253]
HLM (% Qh): <24 % Qh

COc1c(C(=O)O)cnn1-c1cccc(-c2cccc(C)c2OCc2cc(F)c3c(c2)CCN([C@H]2CCOC2)C3)n1 [Compound 254]
HLM (% Qh): <24 % Qh
